Measurements published in the supplement of paper PMC10627819.

How the values were obtained:
[1] = system: S. pneumoniae D39V; test: fitness (endpoint OD595 vs no drug) (fraction); higher = more growth
Procedure, shortened: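 Bacterial fitness was scored as optical density at the stationary-phase transition relative to the robust mean of no-drug control wells. Scores are capped at 1. The growth data were OD595 readings every 30 min for 14 h at 37 °C, background-subtracted against the first reading, from 384-well plates inoculated at OD595 0.01 in TSB, LB Lennox or CY.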

[2] = system: B. subtilis 168; test: Bliss interaction score (quartile over a dose matrix) (fitness difference); higher = more antagonism (negative = synergy)
Procedure, shortened: (§1)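 Growth was read as OD595 when cultures entered stationary phase, and each value was divided by the plate's robust no-drug mean and capped at 1. This normalised ratio is the fitness value, and fitness for each single drug came from the combination data. The Bliss score subtracts the expected fitness, taken as the product, from the observed fitness and is given as quartiles across technical, biological and donor/recipient replicates.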

[3] = system: S. aureus DSM 20231; test: as above
Procedure, shortened: as §1

[4] = system: S. aureus Newman; test: as above
Procedure, shortened: as §1

[5] = system: S. pneumoniae D39V; test: as above
Procedure, shortened: as §1
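For Bliss interaction score (quartile over a dose matrix) in this document: first quartile when negative (synergy) and third quartile when positive (antagonism).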
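For fitness (endpoint OD595 vs no drug) in this document: OD595 on entry to stationary phase over no-drug wells; at most 1.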

CC(=O)NC[C@H]1CN(c2ccc(N3CCOCC3)c(F)c2)C(=O)O1 [Linezolid] + C/C(=C\C(=O)OCCCCCCCCC(=O)O)C[C@@H]1OC[C@H](C[C@@H]2O[C@H]2[C@@H](C)[C@H](C)O)[C@@H](O)[C@H]1O [Pseudomonic acid]
fitness, [1]
Details	first compound 0.2 µg/mL	first compound 0.4 µg/mL	first compound 0.42 µg/mL	first compound 0.8 µg/mL
partner 0.03 µg/mL	0.862	0.731	0.275	0.411
partner 0.06 µg/mL	0.796	0.753	0.233	–
partner 0.12 µg/mL	0.626	0.611	0.183	0.427

Details	Bliss interaction score
[2]	-0.0357
[3]	0.0202
[4]	0.0446
[5]	0.121

CC(=O)NC[C@H]1CN(c2ccc(N3CCOCC3)c(F)c2)C(=O)O1 [Linezolid] + CO[C@H]1/C=C/O[C@@]2(C)Oc3c(C)c(O)c4c(O)c(c(/C=N/N5CCN(C)CC5)c(O)c4c3C2=O)NC(=O)/C(C)=C\C=C\[C@H](C)[C@H](O)[C@@H](C)[C@@H](O)[C@@H](C)[C@H](OC(C)=O)[C@@H]1C [Rifampicin]
fitness, [1]
Details	first compound 0.105 µg/mL	first compound 0.2 µg/mL	first compound 0.21 µg/mL	first compound 0.42 µg/mL	first compound 0.8 µg/mL
partner 0.05 µg/mL	–	0.69	0.182	0.171	0.348
partner 0.1 µg/mL	0.17	–	0.135	0.103	0.216
partner 0.2 µg/mL	0.127	–	0.0997	0.113	–

fitness, [1], one replicate
Details	first compound 0.2 µg/mL	first compound 0.4 µg/mL	first compound 0.8 µg/mL
partner 0.025 µg/mL	0.809	0.685	0.298
partner 0.2 µg/mL	0	0	0

Details	Bliss interaction score
[2]	-0.0404
[3]	-0.0505
[4]	-0.0225
[5]	-0.0681

CC(=O)NC[C@H]1CN(c2ccc(N3CCOCC3)c(F)c2)C(=O)O1 [Linezolid] + Clc1ccc(COC(Cn2ccnc2)c2ccc(Cl)cc2Cl)c(Cl)c1 [Miconazole]
fitness, [1]
Details	first compound 0.105 µg/mL	first compound 0.2 µg/mL	first compound 0.21 µg/mL	first compound 0.4 µg/mL	first compound 0.42 µg/mL	first compound 0.8 µg/mL
partner 1.073 µg/mL	–	0.924	–	0.751	–	0.431
partner 1.25 µg/mL	0.835	–	0.653	–	0.566	–
partner 2.145 µg/mL	–	0.929	–	0.765	–	0.428
partner 2.5 µg/mL	0.807	–	0.691	–	0.524	–
partner 4.29 µg/mL	–	0.957	–	0.804	–	0.54
partner 5 µg/mL	0.842	–	0.74	–	0.502	–

Details	Bliss interaction score
[2]	0.047
[3]	-0.0366
[4]	-0.0524
[5]	0.199

CC(=O)NC[C@H]1CN(c2ccc(N3CCOCC3)c(F)c2)C(=O)O1 [Linezolid] + O=C1CN(/N=C/c2ccc([N+](=O)[O-])o2)C(=O)N1 [Nitrofurantoin]
fitness, [1]
Details	first compound 0.105 µg/mL	first compound 0.2 µg/mL	first compound 0.21 µg/mL	first compound 0.4 µg/mL	first compound 0.42 µg/mL	first compound 0.8 µg/mL
partner 1.285 µg/mL	–	0.79	–	0.695	–	0.291
partner 2 µg/mL	0.784	–	0.688	–	0.522	–
partner 2.57 µg/mL	–	0.791	–	0.683	–	0.259
partner 4 µg/mL	0.795	–	0.705	–	0.488	–
partner 8 µg/mL	0.618	–	0.346	–	0.151	–

[1], partner 5.14 µg/mL, one replicate
Details	fitness
first compound 0.2 µg/mL	0.735
first compound 0.4 µg/mL	0.534
first compound 0.8 µg/mL	0.239

Details	Bliss interaction score
[2]	-0.141
[3]	-0.0317
[4]	-0.0829
[5]	-0.147
